Results reported in PubChem BioAssay AID330 (DTP/NCI, 2004).
Where “and” joins values, the source holds several entries; their conditions need not be identical. Equal values may be shown once. Inconclusive results and toxic doses are left out. Rule for the calls: active = survival T/C of 150% or more; inactive = T/C below 125% in these data.

System: P388 leukemia ip, CD2F1 mice, survival T/C
Assay: NCI In Vivo Anticancer Drug Screen. Data for tumor model P388 Leukemia (intraperitoneal) in CD2F1 (CDF1) mice
Conditions: endpoint: median survival time, higher = longer survival
Outline: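 Mice carrying the transplanted tumor received test compound or vehicle. Survival was recorded in each group, and the value is the treated-group measurement divided by that of the vehicle-treated control group.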

[1] = dose: 50.0 mg/kg/injection, schedule: Q01DX005 (ip), vehicle: saline with Tween-80
[2] = dose: 100.0 mg/kg/injection, schedule: Q01DX005 (ip), vehicle: saline with Tween-80
[3] = dose: 200.0 mg/kg/injection, schedule: Q01DX005 (ip), vehicle: saline with Tween-80
[4] = dose: 60.0 mg/kg/injection, schedule: Q01DX005 (ip), vehicle: saline with Tween-80
[5] = dose: 50.0 mg/kg/injection, schedule: Q01DX005 (ip), vehicle: Klucel (hydroxypropylcellulose) (HPC)
[6] = dose: 100.0 mg/kg/injection, schedule: Q01DX005 (ip), vehicle: Klucel (hydroxypropylcellulose) (HPC)
[7] = dose: 200.0 mg/kg/injection, schedule: Q01DX005 (ip), vehicle: Klucel (hydroxypropylcellulose) (HPC)
[8] = dose: 60.0 mg/kg/injection, schedule: Q01DX005 (ip), vehicle: saline
[9] = dose: 120.0 mg/kg/injection, schedule: Q01DX005 (ip), vehicle: saline
[10] = dose: 240.0 mg/kg/injection, schedule: Q01DX005 (ip), vehicle: saline
[11] = dose: 100.0 mg/kg/injection, schedule: Q04DX002 (ip), vehicle: Klucel (hydroxypropylcellulose) (HPC)
[12] = dose: 200.0 mg/kg/injection, schedule: Q04DX002 (ip), vehicle: Klucel (hydroxypropylcellulose) (HPC)

Measured: T/C

Oc1ccc([C@H]2Oc3c(c(O)cc4c3C3c5c(O)cc(O)cc5OC(c5ccc(O)cc5)(O4)[C@H]3O)CC2O)cc1 (stereo partly specified)
inactive: dose: 1.0 mg/kg/injection, schedule: Q01DX005 (ip), vehicle: Klucel (hydroxypropylcellulose) (HPC) 103 % of control | dose: 2.0 mg/kg/injection, schedule: Q01DX005 (ip), vehicle: Klucel (hydroxypropylcellulose) (HPC) 103 % of control | dose: 4.0 mg/kg/injection, schedule: Q01DX005 (ip), vehicle: Klucel (hydroxypropylcellulose) (HPC) 110 % of control | dose: 8.0 mg/kg/injection, schedule: Q01DX005 (ip), vehicle: Klucel (hydroxypropylcellulose) (HPC) 103 % of control

CC(C)C(CC(=O)O)C(=O)O (stereo unspecified)
inactive: [1] 100 % of control | [2] 91 % of control | [3] 104 % of control

CC1SC2(C(=O)Nc3ccc([N+](=O)[O-])cc32)N(c2ccc(Cl)cc2)C1=O (stereo unspecified)
inactive: [4] 91 % of control | dose: 120.0 mg/kg/injection, schedule: Q01DX005 (ip), vehicle: saline with Tween-80 91 % of control | dose: 240.0 mg/kg/injection, schedule: Q01DX005 (ip), vehicle: saline with Tween-80 91 % of control

COc1cccc(C2NC(c3cccc(OC)c3)C3CCCC2C3=O)c1 (stereo unspecified)
inactive: dose: 25.0 mg/kg/injection, schedule: Q01DX005 (ip), vehicle: Klucel (hydroxypropylcellulose) (HPC) 103 % of control | [5] 102 % of control | [6] 106 % of control | [7] 102 % of control

Cc1cc(C)cc(NCCC#N)c1
inactive: dose: 100.0 mg/kg/injection, schedule: Q04DX003 (ip), vehicle: other 109 % of control | dose: 200.0 mg/kg/injection, schedule: Q04DX003 (ip), vehicle: other 109 % of control

CC1([N+](=O)[O-])C(=O)C2(N3CCCC3)CCCC2C1c1ccccc1 (stereo unspecified)
inactive: dose: 60.0 mg/kg/injection, schedule: Q01DX005 (ip), vehicle: Klucel (hydroxypropylcellulose) (HPC) 99 % of control | dose: 120.0 mg/kg/injection, schedule: Q01DX005 (ip), vehicle: Klucel (hydroxypropylcellulose) (HPC) 91 % of control | dose: 240.0 mg/kg/injection, schedule: Q01DX005 (ip), vehicle: Klucel (hydroxypropylcellulose) (HPC) 90 % of control

Cc1ccc2c(c1)-c1nc(N)ncc1C(O)O2 (stereo unspecified)
inactive: dose: 100.0 mg/kg/injection, schedule: Q04DX003 (ip), vehicle: saline 110 % of control | dose: 200.0 mg/kg/injection, schedule: Q04DX003 (ip), vehicle: saline 96 % of control | dose: 400.0 mg/kg/injection, schedule: Q04DX003 (ip), vehicle: saline 100 % of control

CCOc1cc2c(cc1C(C)c1ccccc1OC)OCO2 (stereo unspecified)
inactive: [1] 100 % of control | [2] 98 % of control | [3] 96 % of control

CC(C)CCCCCCCCCCCCC(=O)NCC(=O)O
inactive: dose: 12.5 mg/kg/injection, schedule: Q01DX009 (ip), vehicle: distilled water + Tween-80 96 % of control | dose: 25.0 mg/kg/injection, schedule: Q01DX009 (ip), vehicle: distilled water + Tween-80 96 % of control | dose: 50.0 mg/kg/injection, schedule: Q01DX009 (ip), vehicle: distilled water + Tween-80 86 % of control | dose: 100.0 mg/kg/injection, schedule: Q01DX009 (ip), vehicle: distilled water + Tween-80 86 % of control | dose: 200.0 mg/kg/injection, schedule: Q01DX009 (ip), vehicle: distilled water + Tween-80 87 % of control

C=CCCNC(=S)S
inactive: [8] 109 % of control | [9] 107 % of control | [10] 108 % of control

Cc1nc2ccccc2nc1CBr
inactive: dose: 5.56 mg/kg/injection, schedule: Q01DX009 (ip), vehicle: saline with Tween-80 110 % of control | dose: 8.33 mg/kg/injection, schedule: Q01DX009 (ip), vehicle: saline with Tween-80 120 % of control | dose: 18.7 mg/kg/injection, schedule: Q01DX009 (ip), vehicle: saline with Tween-80 120 % of control

CC1CCCC2=C1C(O)c1c(N)cccc1C2O (stereo unspecified)
inactive: [5] 96 % of control | [6] 101 % of control | [7] 94 % of control

CS(=O)c1c(C(=O)O)cc(C(C)(C)C)cc1C(=O)O (stereo unspecified)
inactive: [11] 105 % of control | [12] 107 % of control | dose: 400.0 mg/kg/injection, schedule: Q04DX002 (ip), vehicle: Klucel (hydroxypropylcellulose) (HPC) 96 % of control

O=C(NC(Cc1ccc(Cl)cc1)C(=O)O)c1cccc(Br)c1 (stereo unspecified)
inactive: [5] 102 % of control | [6] 100 % of control | [7] 110 % of control

Cc1cccc(CNc2cccc(C)n2)n1
inactive: dose: 50.0 mg/kg/injection, schedule: Q01DX005 (ip), vehicle: saline 105 % of control | dose: 100.0 mg/kg/injection, schedule: Q01DX005 (ip), vehicle: saline 97 % of control

Cn1c2ccccc2c(=O)c2c(O)cc3c(c21)C=CC(C)(C)O3
inactive: dose: 0.38 mg/kg/injection, schedule: Q01DX009 (ip), vehicle: Klucel (hydroxypropylcellulose) (HPC) 107 % of control | dose: 0.38 mg/kg/injection, schedule: Q01DX009 (ip), vehicle: saline with Tween-80 95 % of control | dose: 0.75 mg/kg/injection, schedule: Q01DX009 (ip), vehicle: Klucel (hydroxypropylcellulose) (HPC) 102 % of control and 97 % of control | dose: 0.75 mg/kg/injection, schedule: Q01DX009 (ip), vehicle: saline with Tween-80 98 % of control | dose: 1.5 mg/kg/injection, schedule: Q01DX009 (ip), vehicle: Klucel (hydroxypropylcellulose) (HPC) 99 % of control and 103 % of control | dose: 1.5 mg/kg/injection, schedule: Q01DX009 (ip), vehicle: saline with Tween-80 94 % of control | dose: 1.56 mg/kg/injection, schedule: Q01DX009 (ip), vehicle: Klucel (hydroxypropylcellulose) (HPC) 124 % of control | dose: 3.0 mg/kg/injection, schedule: Q01DX009 (ip), vehicle: Klucel (hydroxypropylcellulose) (HPC) 102 % of control and 103 % of control | dose: 3.0 mg/kg/injection, schedule: Q01DX009 (ip), vehicle: saline with Tween-80 94 % of control | dose: 3.12 mg/kg/injection, schedule: Q01DX009 (ip), vehicle: Klucel (hydroxypropylcellulose) (HPC) 101 % of control | dose: 6.25 mg/kg/injection, schedule: Q01DX009 (ip), vehicle: Klucel (hydroxypropylcellulose) (HPC) 102 % of control | dose: 12.5 mg/kg/injection, schedule: Q01DX009 (ip), vehicle: Klucel (hydroxypropylcellulose) (HPC) 100 % of control

C=C/C=C/NC(=O)OCc1ccccc1
inactive: dose: 50.0 mg/kg/injection, schedule: Q01DX009 (ip), vehicle: saline with Tween-80 100 % of control | dose: 100.0 mg/kg/injection, schedule: Q01DX009 (ip), vehicle: saline with Tween-80 105 % of control | dose: 200.0 mg/kg/injection, schedule: Q01DX009 (ip), vehicle: saline with Tween-80 102 % of control

COc1ccc2c(C)cc(=O)oc2c1OCC(O)CN1CCOCC1 (stereo unspecified)
inactive: [8] 110 % of control | [9] 104 % of control | [10] 103 % of control

CC1=NN(C(=O)c2ccccc2)C(=O)C1N=Nc1ccc(Cl)cc1 (stereo unspecified)
inactive: dose: 100.0 mg/kg/injection, schedule: Q01DX001 (ip), vehicle: saline with Tween-80 94 % of control | dose: 200.0 mg/kg/injection, schedule: Q01DX001 (ip), vehicle: saline with Tween-80 94 % of control | dose: 400.0 mg/kg/injection, schedule: Q01DX001 (ip), vehicle: saline with Tween-80 88 % of control

COC(=O)c1ccc(C(N)=O)nc1
inactive: dose: 25.0 mg/kg/injection, schedule: Q04DX002 (ip), vehicle: Klucel (hydroxypropylcellulose) (HPC) 97 % of control | dose: 50.0 mg/kg/injection, schedule: Q04DX002 (ip), vehicle: Klucel (hydroxypropylcellulose) (HPC) 101 % of control | [11] 96 % of control | [12] 105 % of control

COc1ccc(S(N)(=O)=O)cc1C(=O)N1CCN2CCCC2C1 (stereo unspecified)
inactive: [8] 100 % of control | [9] 100 % of control | [10] 94 % of control

CN(C)Cc1cn(C[Si](C)(C)C)c2ccccc12
inactive: [4] 112 % of control
